Reference: US6958162B2, “Herbal composition for treating allergic disorders and method for making the same” (Industrial Technology Research Institute, priority 2003, dated 2005)

Legend:
[1] = test system: IL-4 released from EL-4 cells; experiment: Measurement of IL-4 released from stimulated EL-4 cells (ELISA); assay type: cell-based, mouse; conditions: FIG. 3b, 3c
Protocol: During the day of experiment, the herbal drug was diluted in the cell culture medium to the end point (0.5 μg/ml, 5 μg/ml, or as appropriate). The ability of each herbal composition and its mixtures to affect the production of IL-4, TNF-alpha, and cLT was measured.
The mouse thymoma cell lines, EL-4 were incubated with each composition or mixture for 2 hours before it was stimulated by 100 ng/ml of A23187 and PMA. Samples of tissue culture medium were collected at the end of 24 hours incubation and stored at −70 degrees C. prior to assay.
Cytokine measurements were carried out using the commercially available ELISA assay kit (R&D Systems, Minneapolis, Minn.) in accordance with the supplier's protocols. In brief, 100 μl of the assay buffer supplied was added to each of the wells of a micro-titer plate containing pre-bound anti-cytokine antibody, followed by 100 μl of a standard or sample solution, diluted appropriately for the concentration range measured. All incubations were carried out at 37 degrees C. After two hours incubation, the plates were washed four times with a wash buffer, and the second antibody, Detection Antibody, was added with 1:200 in Reagent Diluent to each well. The plates were sealed and incubated for 2 hours. […] Optical sensitivity was determined at 450 nm using a Molecular Devices of micro-titer plate reader.

pulmonary function = experiment: Pulmonary function determination (barometric plethysmograph, methacholine) in Der p 2 allergic mice; assay type: in vivo, Balb/c mice; conditions: DEX 1 μg/mouse/day, TCM 20 mg/mouse/day; result in words
Protocol: Male Balb/c mice were obtained from the National Laboratory Breeding Research Center in Taiwan and were raised in a specific pathogen-free environment. These mice used were between 6 and 8 weeks of age. Groups of six mice were caged separately according to their treatments. Recombinant Dermatophoides pteronyssinus group 2 (Der p 2) was prepared from Dr. Tsai's lab and test drugs, Traditional Chinese Medicine A (TCM-A, or 1217A in FIGS. 7, 8, 9, and 10) and Traditional Chinese Medicine B (TCM-B, or 1217B in FIGS. 7, 8, 9, and 10) were prepared from the Biomedical Engineering Center Industrial Technology Research Institute, Hsinchu, Taiwan. […]
Each mouse was placed inside a barometric plethysmograph (Buxco Electronics, Troy, N.Y.). […] The pressure signal was amplified, digitized via an A/D convert card, and sent to a computer with a BioSystem XA program (Buxco Electronics, Troy, N.Y.), which sampled and calculated desired respiratory parameters. […]
An aerosol was generated by placing a 5 ml saline or methacholine (1.56 to 50.00 mg/ml) solution in the cup of an ultrasonic nebulizer (DeVilbiss, Somerset, Pa.) and it was delivered via a connecting tube and a three-way connector to the animal chamber of the plethysmograph. […] At first, each mouse inhaled the saline aerosol for 3 mins and then the respiratory parameters were measured for 3 mins. […]

[2] = test system: inflammatory cells in the BAL fluids; experiment: Der p 2 induced allergic airway inflammation in mice: cell counts in BAL fluid; assay type: in vivo, Balb/c mice; conditions: DEX 1 μg/mouse/day, mean ± SEM
Protocol: Male Balb/c mice were obtained from the National Laboratory Breeding Research Center in Taiwan and were raised in a specific pathogen-free environment. These mice used were between 6 and 8 weeks of age. Groups of six mice were caged separately according to their treatments. Recombinant Dermatophoides pteronyssinus group 2 (Der p 2) was prepared from Dr. Tsai's lab and test drugs, Traditional Chinese Medicine A (TCM-A, or 1217A in FIGS. 7, 8, 9, and 10) and Traditional Chinese Medicine B (TCM-B, or 1217B in FIGS. 7, 8, 9, and 10) were prepared from the Biomedical Engineering Center Industrial Technology Research Institute, Hsinchu, Taiwan.
Mice were immunized by intraperitoneal (i.p.) injection of 1 μg/0.1 ml Der p 2 emulsified in 4 μg/0.062 ml aluminum hydroxide Al(OH)3 (Whitehall Lab Ltd, Punchbowel, Australia) on day 0 and day 7. After immunization, mice were fed with TCM for 3 weeks. Mice of different groups were fed with Dexamethasome (1 μg/mouse/day), TCM-A (20 mg/mouse/day), TCM-B (20 mg/mouse/day) or normal saline 500 μl/mouse/day. On days 28 and 35, mice were lightly anesthetized with an i.p. injection of 60 mg/kg of sodium pentobarbital (Sigma Chemical Co., St. Louis, Mo., USA) and intratracheally (i.t.) inoculated with 1 μg/50 μl of Der p 2. Twenty-four hours after the second i.t. inoculation, mice were sacrificed after pulmonary function measurement.
After pulmonary function measurement, bronchoalveolar lavage (BAL) was performed with the following procedure. Two separate injections of 1 ml sterile endotoxin-free saline were given into the lung via the trachea of each mouse. Approximately 1.8 ml of the bronchoalveolar lavage (BAL) fluid was recovered constantly. The BAL fluids were aspirated and stored at −70° C. until assay. After total leukocyte counting, a cytospin preparation of […] BAL fluid was stained with Liu stain (Tonyar Diagnostic Inc, Taipei County, Taiwan) and differential counts were performed on 200 cells. […] Blood samples were obtained via the orbital sinus and sera were collected and stored at −70° C. until assay.

SMILES	effect on IL-4 released from EL-4 cells (excipients and powder with excipients) [1]	pulmonary function of allergic animals (methacholine from low dose to high dose) (pulmonary function)	Differential Counts, Eos ([2]; BAL fluid, TCM 20 mg/mouse/day)	Differential Counts, Lym ([2]; BAL fluid, TCM 20 mg/mouse/day)	Differential Counts, Macro ([2]; BAL fluid, TCM 20 mg/mouse/day)	Differential Counts, Neu ([2]; BAL fluid, TCM 20 mg/mouse/day)	Total cell NO in BAL fluid ([2]; fed 3 weeks, TCM-A or TCM-B 20 mg/mouse/day)
O=P([O-])([O-])[O-].O=P([O-])([O-])[O-].[Ca+2].[Ca+2].[Ca+2] [Ca3(PO4)2]	do not have any effect	–	–	–	–	–	–
C[C@@H]1C[C@H]2[C@@H]3CCC4=CC(=O)C=C[C@]4(C)[C@@]3(F)[C@@H](O)C[C@]2(C)[C@@]1(O)C(=O)CO [DEX, Dexamethasone]	–	can improve the pulmonary function	3.2 ± 0.4 ×10^4/ml	9.4 ± 1.5 ×10^4/ml	29.2 ± 4.4 ×10^4/ml	6.6 ± 1.0 ×10^4/ml	46.4 ± 2.2 ×10^4/ml
